Results published in patent US20140155445A1, “Compounds and Methods for Treating Cancer and Diseases of the Central Nervous System” (Osta Biotechnologies Inc., priority 2007, published 2014).
Where a name gives a salt, the structure may show the parent alone.

Tests used:
[1] = target: T1, HO-2 (rat brain) (Rattus norvegicus, UniProt P23711); experiment: HO enzymatic activity in rat brain microsomal fraction (CO formed from methemalbumin, gas chromatography); format: biochemical; settings: rat brain microsomes, average ± standard deviation of replicate experiments; for IC50: read-out: IC50 HO-2 (rat brain)/μM
T1 construct: brain microsomes were used as a source of HO-2; from tissue; host or cells: brain microsomal fraction of adult male Sprague-Dawley rats
T1 sequence (P23711 1-315): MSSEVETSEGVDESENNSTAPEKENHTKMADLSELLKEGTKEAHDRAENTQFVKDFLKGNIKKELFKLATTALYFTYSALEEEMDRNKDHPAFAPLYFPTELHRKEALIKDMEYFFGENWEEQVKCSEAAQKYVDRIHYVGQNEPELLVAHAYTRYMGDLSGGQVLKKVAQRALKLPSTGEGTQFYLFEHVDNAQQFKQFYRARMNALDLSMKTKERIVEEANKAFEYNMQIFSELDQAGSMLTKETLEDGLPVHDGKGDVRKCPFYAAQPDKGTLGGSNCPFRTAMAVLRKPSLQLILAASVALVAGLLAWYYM
Method: (§1) Incubations for HO activity analysis were done under conditions for which the rate of CO formation (pmol CO×min^−1×mg protein^−1) was linear with respect to time and microsomal protein concentration. Briefly, reaction mixtures (150 μL) consisting of 100 mM phosphate buffer (pH 7.4), 50 μM methemalbumin, and 1 mg/mL protein were pre-incubated with the inhibitors at final concentrations ranging from 0.1-100 μM for 10 minutes at 37° C. Reactions were initiated by adding NADPH at a final concentration of 1 mM and incubations were performed for an additional 15 minutes at 37° C.
(§2) Incubations for HO activity analysis were done under conditions for which the rate of CO formation (pmol CO/mg protein/minute) was linear with respect to time and microsomal protein concentration. Briefly, reaction mixtures (150 μL) consisting of 100 mM phosphate buffer (pH 7.4), 50 μM methemalbumin and 1 mg/mL protein were pre-incubated with the vehicle (ethanol or water in which the inhibitors were dissolved), or inhibitors at final concentrations ranging from 0.1-1000 μM for 10 minutes at 37° C. Reactions were initiated by adding β-NADPH at a final concentration of 1 mM and incubations were carried out for an additional 15 minutes at 37° C. Reactions were stopped by instantly freezing the reaction mixture on pulverized dry ice and CO formation was measured by gas chromatography using a TA 3000R Process Gas Analyzer (Trace Analytical/Ametek, Newark, Del., USA).
(§3) The values on the abscissa represent the decimal logarithm of the inhibitor's concentration (in μM), whereas the values of the activity on the ordinate are expressed as a percentage of the control experiments without inhibitor.
(§4) The IC50 values for the replicate experiments were employed to generate the reported standard deviation value.

[2] = target: T2, HO-1 (rat spleen) (Rattus norvegicus, UniProt P06762); experiment: HO enzymatic activity in rat spleen microsomal fraction (CO formed from methemalbumin, gas chromatography); format: biochemical; settings: rat spleen microsomes, average ± standard deviation of replicate experiments; for IC50: read-out: IC50 HO-1 (rat spleen)/μM
T2 construct: Spleen microsomes were used as a source of HO-1; from tissue; host or cells: spleen microsomal fraction of adult male Sprague-Dawley rats
T2 sequence (P06762 1-289): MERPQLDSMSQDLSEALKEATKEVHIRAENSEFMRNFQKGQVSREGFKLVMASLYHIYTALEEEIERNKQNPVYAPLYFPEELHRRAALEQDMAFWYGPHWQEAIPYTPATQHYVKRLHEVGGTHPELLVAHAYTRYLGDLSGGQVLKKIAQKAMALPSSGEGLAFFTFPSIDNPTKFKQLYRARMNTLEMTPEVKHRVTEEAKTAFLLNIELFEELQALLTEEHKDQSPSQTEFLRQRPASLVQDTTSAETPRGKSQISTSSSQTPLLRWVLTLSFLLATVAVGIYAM
Method: as §1, §2, §3, §4

| SMILES | IC50 [1] [µM] | IC50 [2] [µM] | IC50 HO-2 (rat brain)/μM [1] | IC50 HO-1 (rat spleen)/μM [2] |
| --- | --- | --- | --- | --- |
| CC(=O)Cn1ccnc1 [1-(1H-Imidazol-1-yl)-propan-2-one] | – | – | Not Active | Not Active |
| O=C(Cn1cncn1)c1ccc(Cl)cc1Cl [1-(2,4-dichloro-phenyl)-2-[1,2,4]triazol-1-yl-ethanone] | > 100 | 4.1 ± 0.9 | – | – |
| O=C(Cn1cncn1)c1cc(Cl)ccc1Cl [1-(2,5-Dichloro-phenyl)-2-[1,2,4]triazol-1-yl-ethanone] | > 100 | 18.4 ± 0.5 | – | – |
| c1ccc(CCC2(Cn3cnnn3)OCCO2)cc1 [1-(2-Phenethyl-[1,3]dioxolan-2-ylmethyl)-1H-tetrazole hydrochloride] | > 100 | 39 ± 5 | – | – |
| c1ccc(CCC2(Cn3cnc(-c4ccccc4)c3)OCCO2)cc1 [1-(2-Phenethyl-[1,3]dioxolan-2-ylmethyl)-4-phenyl-1H-imidazole hydrochloride] | > 100 | > 100 | – | – |
| c1cn(CCC23CC4CC(CC(C4)C2)C3)cn1 [1-(2-adamantan-1-yl-ethyl)-1H-imidazole hydrochloride] | > 100 | 3 ± 1 | – | – |
| c1ccc(-c2ccc(C3(Cn4ccnc4)OCCO3)cc2)cc1 [1-(2-biphenyl-4-yl-[1,3]dioxolan-2-ylmethyl)-1H-imidazole hydrochloride] | > 100 | 16.2 ± 0.4 | – | – |
| Cc1nccn1CC(=O)CCc1ccccc1 [1-(2-methyl-imidazol-1-yl)-4-phenyl-butan-2-one hydrochloride] | > 100 | > 100 | – | – |
| c1ccc2cc(C3(Cn4cncn4)OCCO3)ccc2c1 [1-(2-naphthalen-2-yl-[1,3]dioxolan-2-ylmethyl)-1H-[1,2,4]triazole] | > 100 | 3.58 ± 0.08 | – | – |
| c1ccc2cc(C3(Cn4ccnc4)OCCO3)ccc2c1 [1-(2-naphthalen-2-yl-[1,3]dioxolan-2-ylmethyl)-1H-imidazole hydrochloride] | > 100 | 2.63 ± 0.06 | – | – |
| c1ccc(OCCn2ccnc2)cc1 [1-(2-phenoxy-ethyl)-1H-imidazole hydrochloride] | > 100 | 61 ± 29 | – | – |
| c1ccc(SCCn2ccnc2)cc1 [1-(2-phenylsulfanyl-ethyl)-1H-imidazole hydrochloride] | > 100 | 6 ± 0.1 | – | – |
| O=C(Cn1cncn1)c1ccc(Cl)c(Cl)c1 [1-(3,4-Dichloro-phenyl)-2-[1,2,4]triazol-1-yl-ethanone hydrochloride] | > 100 | 1.3 ± 0.5 | – | – |
| O=C(CCc1ccccc1)Cn1nc(Br)nc1Br [1-(3,5-Dibromo-[1,2,4]triazol-1-yl)-4-phenyl-butan-2-one] | > 100 | > 100 | – | – |
| O=C(CCc1ccccc1)Cn1nc(-c2ccccc2)nc1-c1ccccc1 [1-(3,5-Diphenyl-[1,2,4]triazol-1-yl)-4-phenyl-butan-2-one] | > 100 | > 100 | – | – |
| CSc1ncn(CC(=O)CCc2ccccc2)n1 [1-(3-Methylsulfanyl-[1,2,4]triazol-1-yl)-4-phenyl-butan-2-one] | > 100 | > 100 | – | – |
| c1ccc(CCCn2ccnc2)cc1 [1-(3-Phenyl-propyl)-1H-imidazole hydrochloride] | > 100 | 14 ± 4 | – | – |
| O=C(CCc1ccccc1)Cn1cnc(Cl)c1Cl [1-(4,5-Dichloro-imidazol-1-yl)-4-phenyl-butan-2-one hydrochloride] | > 100 | > 100 | – | – |
| O=C(CCc1ccccc1)Cn1cnc(-c2ccccc2)c1-c1ccccc1 [1-(4,5-Diphenyl-imidazol-1-yl)-4-phenyl-butan-2-one hydrochloride] | > 100 | 40 ± 2 | – | – |
| c1cn(Cc2ccc(Cn3ccnc3)cc2)cn1 [1-(4-(1H-Imidazol-1-ylmethyl)benzyl)-1H-imidazole dihydrochloride] | > 100 | 86 ± 30 | – | – |
| O=C(Cn1ccnc1)c1ccc(OCc2ccccc2)cc1 [1-(4-Benzyloxy-phenyl)-2-(1H-imidazol-1-yl)-ethanone] | > 100 | 11 ± 3 | – | – |
| O=C(CCc1ccccc1)Cn1cnc(Br)c1 [1-(4-Bromo-imidazol-1-yl)-4-phenyl-butan-2-one] | > 100 | > 100 | – | – |
| O=C(Cn1cncn1)c1ccc([N+](=O)[O-])cc1 [1-(4-Nitro-phenyl)-2-[1,2,4]triazol-1-yl-ethanone hydrochloride] | > 100 | 19.2 ± 0.5 | – | – |
| O/N=C(\Cn1ccnc1)c1ccc(Cl)cc1 [1-(4-chloro-phenyl)-2-imidazol-1-yl-ethanone oxime] | > 100 | 46 ± 8 | – | – |

Results, then the molecule that gave them:

| IC50 [1] [µM] | IC50 [2] [µM] | IC50 HO-2 (rat brain)/μM [1] | IC50 HO-1 (rat spleen)/μM [2] | SMILES |
| --- | --- | --- | --- | --- |
| ~14 | ~10 | – | – | c1cn(CCCCCCCCCCn2ccnc2)cn1 [1,10-bis-(1H-imidazol-1-yl)decane dihydrochloride] |
| ~9 | ~4 | – | – | c1cn(CCCCCCCCCCCCn2ccnc2)cn1 [1,12-bis-(1H-imidazol-1-yl)dodecane dihydrochloride] |
| 6.2 ± 0.1 | 1.8 ± 0.4 | – | – | O=C(CCc1ccc([N+](=O)[O-])cc1)Cn1ccnc1 [1-(1H-Imidazol-1-yl)-4-(4-nitro-phenyl)-butan-2-one hydrochloride] |
| > 100 | > 100 | – | – | CCC(=O)Cn1ccnc1 [1-(1H-Imidazol-1-yl)-butan-2-one hydrochloride] |
| > 100 | 73 ± 10 | – | – | O=C(Cn1ccnc1)c1ccc2c(c1)OCCO2 [1-(2,3-dihydro-benzo[1,4]dioxin-6-yl)-2-imidazol-1-yl-ethanone hydrochloride] |
| 15 ± 1 | 2.2 ± 0.5 | – | – | O=C(Cn1ccnc1)c1ccc(Cl)cc1Cl [1-(2,4-dichloro-phenyl)-2-imidazol-1-yl-ethanone hydrochloride] |
| 58 ± 10 | 6.6 ± 0.2 | – | – | O=C(Cn1ccnc1)c1cc(Cl)ccc1Cl [1-(2,5-dichloro-phenyl)-2-imidazol-1-yl-ethanone hydrochloride] |
| > 10 | 4 ± 1 | – | – | c1ccc(CSCCn2ccnc2)cc1 [1-(2-benzylsulfanyl-ethyl)-1H-imidazole] |
| 35 ± 3 | 2.1 ± 0.1 | – | – | O=C(Cn1ccnc1)c1cccc(Br)c1 [1-(3-Bromo-phenyl)-2-(1H-imidazol-1-yl)-ethanone hydrochloride] |
| 22 ± 3 | 3.7 ± 0.4 | – | – | [O-][S+](CCCn1ccnc1)c1ccccc1 (stereo not drawn) [1-(3-benzenesulfinyl-propyl)-1H-imidazole hydrochloride] |
| 206 ± 96 | 42 ± 13 | – | – | c1ccc(OCCCn2ccnc2)cc1 [1-(3-phenoxy-propyl)-1H-imidazole hydrochloride] |
| 16 ± 2 | 2.4 ± 0.2 | – | – | c1ccc(SCCCn2ccnc2)cc1 [1-(3-phenylsulfanyl-propyl)-1H-imidazole hydrochloride] |
| 50 ± 24 | 2.7 ± 0.5 | – | – | O=C(Cn1cncn1)c1ccc(Br)cc1 [1-(4-Bromo-phenyl)-2-[1,2,4]triazol-1-yl-ethanone] |
| 31 ± 5 | 18.44 ± 0.04 | – | – | [O-][S+](CCCCn1ccnc1)c1ccccc1 (stereo not drawn) [1-(4-benzenesulfinyl-butyl)-1H-imidazole hydrochloride] |
| 2.3 ± 0.2 | 1.99 ± 0.05 | – | – | O=C(Cn1ccnc1)c1ccc(Cc2ccccc2)cc1 [1-(4-benzyl-phenyl)-2-imidazol-1-yl-ethanone hydrochloride] |
| 51 ± 26 | 8.3 ± 0.9 | – | – | Clc1ccc(/C(Cn2ccnc2)=N/OCc2ccc(Br)cc2)cc1 [1-(4-chloro-phenyl)-2-imidazol-1-yl-ethanone O-(4-bromo-benzyl)-oxime hydrochloride] |
| 35 ± 3 | 2.1 ± 0.1 | – | – | O=C(Cn1ccnc1)c1ccc(F)cc1 [1-(4-fluoro-phenyl)-2-imidazol-1-yl-ethanone hydrochloride] |
| 4.6 ± 0.5 | 4 ± 1 | – | – | c1ccc(OCCCCn2ccnc2)cc1 [1-(4-phenoxy-butyl)-1H-imidazole hydrochloride] |
